The source made the active and inactive calls.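 Rule for the calls: active = mean half-maximal activating concentration from the dose-response fit at or below a set limit; inactive = the rest.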
Molecular target: CHO-XBP1 luciferase reporter, IRE1-XBP1 UPR activation
Assay: XBP1 luciferase reporter activation – CHO-XBP1 cells, luminescence, counter-screen for apoptotic UPR arm activators, dose response (AID 489040);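 note: reporter read after six hours of compound exposure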

Row | SMILES | EC50
1 | CCOC(=O)N1CCN(Cc2ccc(O)c3ncccc23)CC1 | > 80 µM (inactive)
2 | Cc1ccc(-c2csc3ncnc(Sc4nnc(CN5CCCCCC5=O)o4)c23)cc1 | > 80 µM (inactive)
3 | C/C(=N\NC(=O)c1ccccc1OCc1ccc(F)cc1)c1ccccn1 | > 80 µM (inactive)
4 | O=[N+]([O-])c1ccccc1S(=O)(=O)Nc1cccc2cccnc12 | > 80 µM (inactive)
5 | Cc1cc(C(=O)CCl)c(C)n1CCc1ccc(Cl)cc1 | > 80 µM (inactive)
6 | CCOc1ccccc1-n1c(SCC(=O)Nc2ccc(CC)cc2)nc2n[nH]c(C)c2c1=N | 7.99 µM
7 | COc1cc(/C=C(/C(=O)c2cccs2)c2nc3ccccc3[nH]2)cc(OC)c1O | > 80 µM (inactive)
8 | CCCCCCCC(=O)Nc1ccc(C(=O)N/N=C/c2cccc([N+](=O)[O-])c2)cc1 | 17.5 µM
9 | CC(C)(C)c1ccc(/C=C(\c2nc3ccccc3[nH]2)S(=O)(=O)c2ccccc2)cc1 | > 80 µM (inactive)
10 | O=C(NC1CCCC1)C(c1ccc(Cl)cc1)N(Cc1ccc(F)cc1)C(=O)CCl (configuration not stated) | > 80 µM (inactive)
11 | Cc1cccc(CSc2cccc3cccnc23)c1 | > 80 µM (inactive)
12 | COc1ccc(N2C(=O)/C(=C/c3cccs3)C(=O)NC2=S)cc1 | > 80 µM (inactive)
13 | CCN(CC)c1ccc(/C=C2\C(=O)N(c3nnc(C)c(=O)[nH]3)N=C2C)cc1 | > 80 µM (inactive)
14 | COc1cccc2sc(Nc3nnc(-c4cccs4)o3)nc12 | > 80 µM (inactive)
15 | O=C(c1ccc(Cl)cc1)C(CN1CCCC1)c1ccccc1 (configuration not stated) | > 80 µM (inactive)
16 | Cc1nn(Cc2c(Cl)cccc2Cl)c(C)c1NC(=O)c1cn(-c2ccccc2)nc1-c1ccccc1 | > 80 µM (inactive)
17 | Cc1noc2ncnc(Sc3ccc(Br)cc3)c12 | > 80 µM (inactive)
18 | CNC[C@@H](Cc1ccccc1)NC[C@@H](CC1CCCCC1)NCCCc1ccccc1 | > 80 µM (inactive)
19 | Cc1ccc(-c2nc(NC(=O)c3nn(C)cc3[N+](=O)[O-])sc2C)cc1 | > 80 µM (inactive)
20 | C=CCSC(=C(C#N)C#N)c1cc2c([nH]1)CCCC2 | > 80 µM (inactive)
21 | O=C(NCCc1ccc(F)cc1)c1coc(=O)c(Br)c1 | > 80 µM (inactive)
22 | Cc1ccc(C(=O)/C=C/C(=O)c2ccc(C)cc2)cc1 | > 80 µM (inactive)
23 | O=C1NN(c2cccc(Br)c2)C(=O)/C1=C/c1cccs1 | 8.89 µM
24 | Cc1ccc(-c2nn(-c3ccccc3)cc2C=C2C(=O)CC(C)(C)CC2=O)cc1 | > 80 µM (inactive)
25 | O=C(CN(c1cccc(C(F)(F)F)c1)S(=O)(=O)c1ccc(Cl)c([N+](=O)[O-])c1)NCc1ccc(F)cc1 | > 80 µM (inactive)

Row | SMILES | EC50
26 | CC1CCN(Cc2c(C(=O)N/N=C/c3ccc(C(C)(C)C)cc3)nnn2-c2nonc2N)CC1 | > 80 µM (inactive)
27 | O=C(Nc1nc(-c2ccccn2)cs1)c1ccc(Cl)s1 | inactive
28 | Cn1c(SCC(=O)NCC2CCCO2)ncc(C(=O)Nc2ccc(Cl)cc2)c1=O (configuration not stated) | > 80 µM (inactive)
29 | Cc1cc(SCC(=O)N/N=C/c2ccc(O)c(O)c2)nc2ccccc12 | inactive
30 | COC(=O)c1cc(=O)n(CCc2ccc(OC)cc2)c(=Nc2ccc(F)c(Cl)c2)s1 | > 80 µM (inactive)
31 | COc1ccc(OC)c(/C=C/C(=O)N2C(=O)c3cccc(N)c3C2=O)c1 | > 80 µM (inactive)
32 | O=C(Cn1cc(/C=C\[N+](=O)[O-])c2ccccc21)Nc1ccccc1 | > 80 µM (inactive)
33 | Oc1ccc(/C=N/Nc2nc(N3CCCC3)nc(N3CCCC3)n2)cc1O | 18 µM
34 | O=C(Nc1nccs1)c1cccc(N2C(=O)c3cccc4c([N+](=O)[O-])ccc(c34)C2=O)c1 | > 80 µM (inactive)
35 | O=C(CSc1nc2ccc(Nc3nc(N4CCOCC4)nc(N4CCOCC4)n3)cc2s1)Nc1ccccc1F | 5.61 µM
36 | O=C(NCc1ccccc1Cl)c1cccc2c1C(=O)c1ccc(-c3ccc(OC(F)(F)F)cc3)cc1S2(=O)=O | inactive
37 | O=C(Nc1nc2ccc(F)cc2s1)c1ccccn1 | > 80 µM (inactive)
38 | CCOc1ccc(N2C(=O)CC(N(O)c3ccccc3)C2=O)cc1 (configuration not stated) | > 80 µM (inactive)
39 | Cc1ccc(C(=O)C(C(=O)/C=C/c2ccccc2)=C2SCCCS2)cc1 | > 80 µM (inactive)
40 | O=C1NC(=O)C(=Cc2ccc(-c3ccc(Cl)cc3)o2)C(=O)N1 | > 80 µM (inactive)
41 | O=C(N/N=C/c1ccccn1)c1cc(-c2ccccc2)nc2ccccc12 | > 80 µM (inactive)
42 | CCOC(=O)c1cnc(-n2nc(C)cc2C)nc1Nc1ccc(N(C)C)cc1 | > 80 µM (inactive)
43 | Cc1cc(C)n(-c2nc(NC(C)(C)C)nc(NC(C)(C)C)n2)n1 | > 80 µM (inactive)
44 | Cc1ccc(CS(=O)(=O)c2ncc(Cl)c(C(=O)Nc3ccc(OC(F)F)cc3)n2)cc1 | > 80 µM (inactive)
45 | C/C(=N\NC(=O)c1cc(Br)ccc1O)c1ccccn1 | > 80 µM (inactive)
46 | N#Cc1cc([N+](=O)[O-])c(-n2nnc3ccccc32)c([N+](=O)[O-])c1 | inactive
47 | FC(F)(F)c1nnc(-c2ccccc2)nc1Sc1ccccc1 | > 80 µM (inactive)
48 | Cc1cc(O)c(-c2cc(O)c(C)cc2O)cc1O | > 80 µM (inactive)
49 | CCOc1cc(/C=N/NC(N)=S)cc(Br)c1OCc1ccccc1C | > 80 µM (inactive)
50 | O=C(/C(=N/N=C/c1ccc(O)c(O)c1)c1ccccc1)c1ccccc1 | > 80 µM (inactive)

Row | SMILES | EC50
51 | Cc1[nH]c2ccccc2c1CN1CCC(Cc2ccccc2)CC1 | > 80 µM (inactive)
52 | CCOC(=O)N1CCN(S(=O)(=O)c2ccc(C(=O)Nc3nc4c(s3)CC(C)CC4)cc2)CC1 (configuration not stated) | > 80 µM (inactive)
53 | COc1cc(C(=O)Sc2ccc(Cl)cc2)cc(OC)c1OC | > 80 µM (inactive)
54 | CCOC(=O)c1c(C)oc2c1c(C(c1cccnc1)N1CCCCC1)c(O)c1ccccc12 (configuration not stated) | > 80 µM (inactive)
55 | COc1ccccc1N1CCN(/N=C/c2ccc(O)c(O)c2)CC1 | > 80 µM (inactive)
56 | CCOc1cc(/C=C2/C(=O)ON=C2C)ccc1OCc1ccccc1F | > 80 µM (inactive)
57 | O=[N+]([O-])c1cc(O)c2ncccc2c1 | > 80 µM (inactive)
58 | O=C(CCN1C(=O)C2C3C=CC(C4CC34)C2C1=O)Oc1cccc2cccnc12 (configuration not stated) | > 80 µM (inactive)
59 | COc1ccccc1-c1cc(C(F)(F)F)nc(S(=O)(=O)CCCC(=O)NCc2ccc(F)cc2)n1 | > 80 µM (inactive)
60 | O=C(CCl)N1N=C(c2cccs2)CC1c1ccco1 (configuration not stated) | > 80 µM (inactive)
61 | COc1cc(/C=C(/C#N)c2nc3ccccc3[nH]2)ccc1OCC(=O)Nc1ccccc1C | > 80 µM (inactive)
62 | Oc1c(Cl)cc(CN2CCCCC2)c2cccnc12 | > 80 µM (inactive)
63 | C/C(=N\NC(=O)COc1ccccc1-c1ccccc1)c1ccccn1 | > 80 µM (inactive)
64 | COc1ccc(NC(=O)c2nc(S(=O)(=O)Cc3cccc(C)c3)ncc2Cl)c(OC)c1 | > 80 µM (inactive)
65 | COCc1cc(C)nc(OCC(=O)N/N=C/c2ccc(-c3cc([N+](=O)[O-])ccc3Cl)o2)c1C#N | 13.2 µM
66 | O=C(Nc1nc(-c2ccc3ccccc3c2)cs1)c1ccc(N2C(=O)CCC2=O)cc1 | > 80 µM (inactive)
67 | S=C1SCN(CC2CC2)CN1CC1CC1 | > 80 µM (inactive)
68 | CCOc1ccccc1N=Cc1c(O)c2ccccc2oc1=O | 10.8 µM
69 | C/C(=N\NC(=O)c1cccc(Br)c1)c1ccccn1 | > 80 µM (inactive)
70 | Oc1ccc(CN2CCN(c3ccccc3)CC2)c2cccnc12 | > 80 µM (inactive)
71 | CN(C)C(=S)N=Nc1[nH]c2ccccc2c1O | > 80 µM (inactive)
72 | Oc1ccc(/C=N/Nc2ncnc3c2ncn3Cc2ccccc2)cc1O | inactive
73 | Cc1ccc(C(=O)Oc2ccc(Cl)c3cccnc23)cc1[N+](=O)[O-] | > 80 µM (inactive)
74 | O=C(CCN1C(=O)/C(=C\c2ccccc2F)SC1=S)N1CCCCC1 | > 80 µM (inactive)
75 | Cc1cccc2sc(NC(=O)c3cc(S(=O)(=O)N(C)C)ccc3N3CCCC3)nc12 | 5.3 µM

Row | SMILES | EC50
76 | CC(C)(C)C(=O)N1CCN(c2ccc(NC(=O)c3ccc([N+](=O)[O-])o3)cc2)CC1 | > 80 µM (inactive)
77 | Cn1nnnc1Sc1ncnc2scc(-c3cc4ccccc4o3)c12 | > 80 µM (inactive)
78 | CCOC(=O)/C(=C\c1ccccc1)C(=O)c1cc(C(C)=O)c(Nc2ccccc2)s1 | > 80 µM (inactive)
79 | O=C(NCc1cccnc1)/C(=C/c1ccc(-c2ccc(Cl)cc2)o1)S(=O)(=O)c1ccccc1 | > 80 µM (inactive)
80 | Cc1ccc(N2C(=O)NC(=O)/C(=C/C=C/c3ccco3)C2=O)cc1 | > 80 µM (inactive)
81 | COc1cc(/C=C/C(=O)N2C(=O)c3cccc(N)c3C2=O)cc(OC)c1OC | > 80 µM (inactive)
82 | Cc1ccnc(Nc2nc(-c3ccc(O)c(O)c3)cs2)c1 | > 80 µM (inactive)
83 | COc1cccc(N=Nc2ccc(O)c3ncccc23)c1 | > 80 µM (inactive)
84 | C=C(C(=O)c1ccccc1)C(C(=C)C(=O)c1ccccc1)c1ccc(OC)cc1 | > 80 µM (inactive)
85 | CCSC1(SCC)N=C(N)C2(C#N)C(c3ccc(F)cc3)C12C#N (configuration not stated) | > 80 µM (inactive)
86 | CC(C)[C@H](NC(=O)OC(C)(C)C)c1nnc(S(=O)(=O)Cc2c(F)cccc2Cl)o1 | > 80 µM (inactive)
87 | CCOC(=O)Cc1csc(/N=C/c2c(O)n(-c3ccc(C)c(C)c3)c(=O)c3ccccc23)n1 | 18.3 µM
88 | COc1cc(SC#N)ccc1N=Cc1c(C)[nH]n(-c2ccc(C)c(C)c2)c1=O | > 80 µM (inactive)
89 | CCOc1ccc(NC(=S)NC(=O)/C=C/c2ccc(OC)c(OC)c2)c([N+](=O)[O-])c1 | > 80 µM (inactive)
90 | CC1=C/C(=N\OC(=O)/C=C/c2ccccc2)C(C)=CC1=O | > 80 µM (inactive)
91 | Brc1ccccc1CN1CCN(Cc2c[nH]c3ccccc23)CC1 | > 80 µM (inactive)
92 | Cc1c(C(=O)c2cccc3ccccc23)c2cccc3c2n1[C@H](CN1CCOCC1)CO3 | > 80 µM (inactive)
93 | Cc1ccc(C(C)C)c(OCc2ccc(C(=O)N/N=C/c3ccc(O)c(O)c3)cc2)c1 | 4.41 µM
94 | Clc1ccc(-n2nnnc2Sc2ncnc3sccc23)cc1 | > 80 µM (inactive)
95 | COc1ccc(-c2cc(-c3ccccc3)c(C#N)c(S(C)(=O)=O)n2)cc1 | 5.94 µM
96 | Oc1c(Cl)cc(CN2CCOCC2)c2cccnc12 | > 80 µM (inactive)
97 | COc1ccc(CCn2c(C)cc(C(=O)CCl)c2C)cc1OC | > 80 µM (inactive)
